{
  "source": "the NIST ThermoML archive (doi:10.1016/j.jct.2013.08.004)",
  "experiment": "molar enthalpy of vaporization or sublimation",
  "conditions": "298.15 K; Liquid; Static calorimetry",
  "note": "± gives the expanded uncertainty stated by the source.",
  "data": [
    {"compound": "COC(=O)c1cccn1C", "note": "[methyl 1-methyl-2-pyrrolecarboxylate]", "values": [
      {"measurement": "molar enthalpy", "value": "14.1 ± 0.287", "unit": "kcal/mol"}
    ]}
  ]
}
